Laboratory results: US20260207602A1, “EGFR INHIBITORS” (Blueprint Medicines Corporation, priority 2022, published 2026)

Assays:
EGFR (d746-750) = biological target: T1, EGFR (d746-750) (Homo sapiens, UniProt P00533, DEL746-750); test: Biochemical EGFR inhibition assay (Caliper mobility shift), EGFR (d746-750); conditions: biochemical Caliper mobility shift assay, EGFR Exon 19-del enzyme; read-out: Enz EGFR Exon 19-del IC50
T1 construct: purchased SignalChem E10-122JG
Method in brief: (§1)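 Mobility-shift readout: phosphorylated and unphosphorylated 5-FAM peptide (2.5 µM) separated electrophoretically. Reactions at room temperature (25 °C), 1.0 mM ATP or ATP Km, HEPES pH 7.5 with MgCl2, Brij-35, DTT and 1.0% DMSO; terminated at 10–20% turnover with 35 mM EDTA. Apparent IC50 fitted.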

EGFR L858R = biological target: T2, EGFR L858R (Homo sapiens, UniProt P00533, L858R); test: Biochemical EGFR inhibition assay (Caliper mobility shift), EGFR L858R; conditions: biochemical Caliper mobility shift assay, EGFR L858R enzyme; read-out: Enz EGFR L858R IC50
T2 construct: purchased SignalChem E10-122BG
Method in brief: as §1

[1] = biological target: intracellular phosphorylation of EGFR (Tyr1068) in PC-9 cells (Homo sapiens, UniProt P00533, DEL746-750); test: PC-9 pEGFR AlphaLISA assay; assay type: cell-based; conditions: 4 hours incubation, read-out: Phos EGFR PC9 IC50
Method in brief: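 PC-9 cells (EGFR del746-750) in phenol-free DMEM/10% FBS, adhered overnight, then exposed to 10-point 4-fold compound dilutions for 4 h at 37 °C. Lysates assayed for pEGFR Tyr1068 by AlphaLISA SureFire Ultra; IC50 from percent pEGFR inhibition vs log concentration.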

T1 sequence (P00533 with tags, fused parts or gaps DEL746-750 limits assumed): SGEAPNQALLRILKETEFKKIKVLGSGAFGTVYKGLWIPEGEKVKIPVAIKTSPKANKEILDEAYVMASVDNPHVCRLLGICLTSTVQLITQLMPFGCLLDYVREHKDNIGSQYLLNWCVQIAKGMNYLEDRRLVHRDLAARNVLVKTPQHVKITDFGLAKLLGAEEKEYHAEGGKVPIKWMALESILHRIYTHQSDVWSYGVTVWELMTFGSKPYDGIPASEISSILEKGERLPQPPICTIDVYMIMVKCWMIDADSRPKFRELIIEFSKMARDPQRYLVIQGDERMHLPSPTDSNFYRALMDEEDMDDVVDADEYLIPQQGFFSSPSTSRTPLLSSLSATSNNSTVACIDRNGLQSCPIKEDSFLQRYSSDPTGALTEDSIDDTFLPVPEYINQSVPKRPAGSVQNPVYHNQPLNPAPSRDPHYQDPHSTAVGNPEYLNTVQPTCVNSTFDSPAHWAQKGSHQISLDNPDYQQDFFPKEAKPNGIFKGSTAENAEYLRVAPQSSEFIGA
Sequence of intracellular phosphorylation of EGFR (Tyr1068) in PC-9 cells (P00533 with tags, fused parts or gaps DEL746-750): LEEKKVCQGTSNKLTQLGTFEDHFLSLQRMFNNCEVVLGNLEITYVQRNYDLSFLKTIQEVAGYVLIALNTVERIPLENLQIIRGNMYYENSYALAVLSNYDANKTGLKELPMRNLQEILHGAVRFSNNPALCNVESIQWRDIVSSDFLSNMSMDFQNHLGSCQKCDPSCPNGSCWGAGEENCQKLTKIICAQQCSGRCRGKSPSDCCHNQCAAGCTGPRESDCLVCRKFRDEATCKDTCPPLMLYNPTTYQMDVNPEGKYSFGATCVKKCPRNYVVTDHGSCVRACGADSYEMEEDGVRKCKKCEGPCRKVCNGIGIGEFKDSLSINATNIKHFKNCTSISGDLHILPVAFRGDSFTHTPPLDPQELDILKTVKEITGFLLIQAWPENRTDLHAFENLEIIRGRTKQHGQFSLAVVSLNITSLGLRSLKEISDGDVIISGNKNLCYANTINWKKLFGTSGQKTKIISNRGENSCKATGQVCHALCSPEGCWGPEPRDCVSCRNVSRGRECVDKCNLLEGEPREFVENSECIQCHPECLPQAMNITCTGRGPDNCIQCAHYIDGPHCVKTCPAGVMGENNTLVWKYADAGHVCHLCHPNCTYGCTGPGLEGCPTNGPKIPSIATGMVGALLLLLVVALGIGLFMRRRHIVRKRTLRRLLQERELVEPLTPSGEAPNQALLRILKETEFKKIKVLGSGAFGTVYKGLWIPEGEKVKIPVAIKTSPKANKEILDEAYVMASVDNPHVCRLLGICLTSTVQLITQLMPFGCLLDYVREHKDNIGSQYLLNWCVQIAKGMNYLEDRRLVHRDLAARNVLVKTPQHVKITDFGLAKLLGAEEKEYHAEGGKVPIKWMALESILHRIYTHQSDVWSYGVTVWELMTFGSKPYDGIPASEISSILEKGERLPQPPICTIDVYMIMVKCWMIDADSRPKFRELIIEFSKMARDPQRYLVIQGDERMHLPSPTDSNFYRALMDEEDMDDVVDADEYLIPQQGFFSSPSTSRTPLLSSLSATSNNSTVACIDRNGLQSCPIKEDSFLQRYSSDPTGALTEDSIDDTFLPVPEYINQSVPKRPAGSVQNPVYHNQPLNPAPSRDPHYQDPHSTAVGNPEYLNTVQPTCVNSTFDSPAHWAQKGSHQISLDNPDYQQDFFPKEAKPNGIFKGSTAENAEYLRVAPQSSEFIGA
T2 sequence (P00533 25-1210 L858R): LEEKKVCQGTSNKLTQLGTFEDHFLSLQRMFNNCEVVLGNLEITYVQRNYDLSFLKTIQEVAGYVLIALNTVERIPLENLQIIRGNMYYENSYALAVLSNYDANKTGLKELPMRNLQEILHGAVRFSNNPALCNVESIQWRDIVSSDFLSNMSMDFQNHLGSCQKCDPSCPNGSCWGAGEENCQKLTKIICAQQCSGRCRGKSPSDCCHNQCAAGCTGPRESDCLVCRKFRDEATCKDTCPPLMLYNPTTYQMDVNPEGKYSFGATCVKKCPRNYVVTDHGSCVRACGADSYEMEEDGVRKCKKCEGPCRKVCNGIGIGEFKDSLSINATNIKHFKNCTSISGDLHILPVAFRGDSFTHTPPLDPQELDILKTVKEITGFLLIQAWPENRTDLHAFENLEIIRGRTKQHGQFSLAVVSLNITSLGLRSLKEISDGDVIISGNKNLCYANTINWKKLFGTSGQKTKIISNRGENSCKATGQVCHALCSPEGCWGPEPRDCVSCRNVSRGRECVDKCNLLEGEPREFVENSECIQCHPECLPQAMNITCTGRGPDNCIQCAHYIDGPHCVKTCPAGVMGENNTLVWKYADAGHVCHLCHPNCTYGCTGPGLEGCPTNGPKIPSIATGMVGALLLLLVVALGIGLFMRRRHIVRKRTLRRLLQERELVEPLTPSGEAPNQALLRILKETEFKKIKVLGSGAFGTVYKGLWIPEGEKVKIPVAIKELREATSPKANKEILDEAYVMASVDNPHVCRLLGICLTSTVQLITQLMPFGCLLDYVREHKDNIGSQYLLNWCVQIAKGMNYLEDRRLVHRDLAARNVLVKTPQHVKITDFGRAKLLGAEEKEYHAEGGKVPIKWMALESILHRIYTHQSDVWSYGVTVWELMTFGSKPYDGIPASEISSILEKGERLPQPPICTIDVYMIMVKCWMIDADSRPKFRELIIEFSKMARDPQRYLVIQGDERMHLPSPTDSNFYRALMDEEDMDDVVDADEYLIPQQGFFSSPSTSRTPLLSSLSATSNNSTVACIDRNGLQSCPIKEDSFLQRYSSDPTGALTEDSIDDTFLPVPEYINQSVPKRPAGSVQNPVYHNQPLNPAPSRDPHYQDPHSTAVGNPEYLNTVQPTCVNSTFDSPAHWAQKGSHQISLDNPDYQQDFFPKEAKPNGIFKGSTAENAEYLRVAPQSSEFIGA

SMILES | IC50 (EGFR (d746-750)) [nM] | IC50 (EGFR L858R) [nM] | IC50 [1] [nM]
C[C@H](CN(C)C)Oc1cc(N2CC[C@H](C(C)(C)O)C2)cc2ncnc(Nc3ccc4ncsc4c3)c12 [Example 181, 2-((S)-1-(4-(benzo[d]thiazol-6-ylamino)-5-(((R)-1-(dimethylamino)propan-2-yl)oxy)quinazolin-7-yl)pyrrolidin-3-yl)propan-2-ol] | ≤ 10 | ≤ 10 | ≤ 10
C[C@@H](Oc1cc(-c2cnn(CC(C)(C)O)c2)cc2ncnc(Nc3ccc4ncsc4c3)c12)C1COC1 (single isomer, unassigned) [Example 127] | ≤ 10 | ≤ 10 | ≤ 10
C[C@@H](Oc1cc(N2CCN(C)CC2)cc2ncnc(Nc3ccc4ncsc4c3F)c12)[C@H]1CCCO1 [Example 115, 7-fluoro-N-(7-(4-methylpiperazin-1-yl)-5-((R)-1-((R)-tetrahydrofuran-2-yl)ethoxy)quinazolin-4-yl)benzo[d]thiazol-6-amine] | ≤ 10 | ≤ 10 | ≤ 10
CC(Oc1cc(-c2cnn(C)c2)cc2ncnc(Nc3ccc4ncsc4c3F)c12)C(=O)N(C)C (stereo not drawn) [Example 278, 2-((4-((7-fluorobenzo[d]thiazol-6-yl)amino)-7-(1-methyl-1H-pyrazol-4-yl)quinazolin-5-yl)oxy)-N,N-dimethylpropanamide] | ≤ 10 | ≤ 10 | ≤ 10
CC[C@@H](Oc1cc(-c2cnn(C)c2)cc2ncnc(Nc3ccc4ncsc4c3F)c12)C1COC1 (single isomer, unassigned) [Example 92] | ≤ 10 | ≤ 10 | ≤ 10

Continued, values first:

IC50 (EGFR (d746-750)) [nM] | IC50 (EGFR L858R) [nM] | IC50 [1] [nM] | SMILES
≤ 10 | ≤ 10 | 10.1 to 50 | C[C@@H](Oc1cc(-c2cn(C)n(C(F)F)c2=O)cc2ncnc(Nc3ccc4ncsc4c3)c12)C1COC1 (single isomer, unassigned) [Example 175]
≤ 10 | 10.1 to 50 | 10.1 to 50 | COc1cc2ncnc(Nc3ccc4ncsc4c3)c2cc1-c1cnn(C2CCN(C)C[C@H]2F)c1 (single isomer, unassigned) [Example 167]
≤ 10 | 10.1 to 50 | 10.1 to 50 | C[C@@H]1CNCCN1c1cc(O[C@H](C)C2COC2)c2c(Nc3ccc4ncsc4c3F)ncnc2c1 (single isomer, unassigned) [Example 105]
≤ 10 | ≤ 10 | ≤ 10 | CN1CC[C@H](Nc2cc3c(Nc4ccc5ncsc5c4)ncnc3cc2-c2ccn(C)n2)[C@H](F)C1 (single isomer, unassigned) [Example A05, N4-(benzo[d]thiazol-6-yl)-N6-((3R,4S)-3-fluoro-1-methylpiperidin-4-yl)-7-(1-methyl-1H-pyrazol-3-yl)quinazoline-4,6-diamine or N4-(benzo[d]thiazol-6-yl)-N6-((3S,4R)-3-fluoro-1-methylpiperidin-4-yl)-7-(1-methyl-1H-pyrazol-3-yl)quinazoline-4,6-diamine]
≤ 10 | ≤ 10 | 10.1 to 50 | COc1cc2ncnc(Nc3ccc4ncsc4c3)c2cc1-c1cnn(CC2CCN(C)CC2)c1 [Example 242, N-(7-methoxy-6-(1-((1-methylpiperidin-4-yl)methyl)-1H-pyrazol-4-yl)quinazolin-4-yl)benzo[d]thiazol-6-amine]
≤ 10 | ≤ 10 | ≤ 10 | C[C@H](Oc1cc(-c2cnn(C)c2)cc2ncnc(Nc3ccc4ncsc4c3)c12)C1CC1 [Example 66, (S)-N-(5-(1-cyclopropylethoxy)-7-(1-methyl-1H-pyrazol-4-yl)quinazolin-4-yl)benzo[d]thiazol-6-amine]
≤ 10 | ≤ 10 | ≤ 10 | C[C@@H](Oc1cc(-c2cnn(C)c2)cc2ncnc(Nc3ccc4ncsc4c3F)c12)C(=O)N(C)C (single isomer, unassigned) [Example 279]
